Each block holds one compound with its values, some of them ahead of it.
Tests used:
[1] = biological target: Serine-protein kinase ATM (Homo sapiens) (UniProt Q13315); test: Selectivity interaction (ActivX KiNativ screen (kinase selectivity in THP-1 cell lysates)) EUB0000639a ATM; format: subcellular; settings: lysate
[2] = biological target: Serine/threonine-protein kinase 33 (Homo sapiens) (UniProt Q9BYT3); test: Selectivity interaction (Kinase panel (Invitrogen)) EUB0000639a STK33; settings: at 200 nM
[3] = biological target: Dual specificity mitogen-activated protein kinase kinase 2 (Homo sapiens) (UniProt P36507); test: Selectivity interaction (KinomeScan (DiscoverX)) EUB0000695a MAP2K2; settings: at 100 nM
[4] = biological target: Calcium/calmodulin-dependent protein kinase type II subunit delta (Homo sapiens) (UniProt Q13557); test: Selectivity interaction (KinomeScan (DiscoverX)) EUB0001079a CAMK2D; settings: at 1 µM
[5] = biological target: T1, Cytoplasmic tyrosine-protein kinase BMX (Homo sapiens) (UniProt P51813); test: Selectivity interaction (KinomeScan (DiscoverX)) EUB0000655a BMX; settings: at 10 µM
T1 sequence (whole entry): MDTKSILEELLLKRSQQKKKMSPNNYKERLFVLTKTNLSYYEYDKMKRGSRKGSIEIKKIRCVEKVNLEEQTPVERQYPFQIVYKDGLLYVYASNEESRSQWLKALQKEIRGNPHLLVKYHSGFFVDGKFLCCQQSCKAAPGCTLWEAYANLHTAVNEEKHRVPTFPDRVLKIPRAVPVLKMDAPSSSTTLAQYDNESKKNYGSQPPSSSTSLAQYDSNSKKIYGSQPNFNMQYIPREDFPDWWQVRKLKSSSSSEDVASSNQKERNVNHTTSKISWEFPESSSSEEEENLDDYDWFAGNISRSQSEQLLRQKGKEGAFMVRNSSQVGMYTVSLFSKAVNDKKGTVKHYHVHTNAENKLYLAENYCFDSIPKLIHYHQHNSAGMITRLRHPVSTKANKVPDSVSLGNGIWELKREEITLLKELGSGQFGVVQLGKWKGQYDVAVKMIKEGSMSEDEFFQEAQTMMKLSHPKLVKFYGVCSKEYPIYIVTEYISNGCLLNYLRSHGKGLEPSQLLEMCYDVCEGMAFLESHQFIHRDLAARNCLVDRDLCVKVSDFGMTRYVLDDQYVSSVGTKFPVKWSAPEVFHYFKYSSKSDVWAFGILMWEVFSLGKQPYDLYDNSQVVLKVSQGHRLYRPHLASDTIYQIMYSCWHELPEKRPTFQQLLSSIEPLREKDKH

[6] = biological target: T2, Rhodopsin kinase GRK7 (Homo sapiens) (UniProt Q8WTQ7); test: Selectivity interaction (KinomeScan (DiscoverX)) EUB0000618a GRK7; settings: at 10 µM
T2 sequence (whole entry): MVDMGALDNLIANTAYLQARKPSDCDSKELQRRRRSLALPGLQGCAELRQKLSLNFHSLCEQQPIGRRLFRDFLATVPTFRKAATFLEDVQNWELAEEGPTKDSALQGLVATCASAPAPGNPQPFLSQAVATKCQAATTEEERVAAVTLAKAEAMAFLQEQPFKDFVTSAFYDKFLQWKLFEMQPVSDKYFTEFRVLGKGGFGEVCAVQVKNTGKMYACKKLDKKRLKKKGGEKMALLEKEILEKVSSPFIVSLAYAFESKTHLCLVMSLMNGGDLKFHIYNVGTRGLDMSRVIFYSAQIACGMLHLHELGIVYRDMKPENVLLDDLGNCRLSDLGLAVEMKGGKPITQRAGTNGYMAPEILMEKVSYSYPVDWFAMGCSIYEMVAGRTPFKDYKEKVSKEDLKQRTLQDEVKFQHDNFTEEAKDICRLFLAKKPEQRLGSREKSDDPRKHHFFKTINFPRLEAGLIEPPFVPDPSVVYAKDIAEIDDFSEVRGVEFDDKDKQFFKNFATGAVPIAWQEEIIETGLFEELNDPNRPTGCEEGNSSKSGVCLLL

[7] = biological target: T3, Aurora kinase A (Homo sapiens) (UniProt O14965); test: Selectivity interaction (Kinase panel (KiNativ target engagement assay in Jurkat cells)) EUB0001635a STK6; format: cell-based; settings: at 1 µM
T3 sequence (whole entry): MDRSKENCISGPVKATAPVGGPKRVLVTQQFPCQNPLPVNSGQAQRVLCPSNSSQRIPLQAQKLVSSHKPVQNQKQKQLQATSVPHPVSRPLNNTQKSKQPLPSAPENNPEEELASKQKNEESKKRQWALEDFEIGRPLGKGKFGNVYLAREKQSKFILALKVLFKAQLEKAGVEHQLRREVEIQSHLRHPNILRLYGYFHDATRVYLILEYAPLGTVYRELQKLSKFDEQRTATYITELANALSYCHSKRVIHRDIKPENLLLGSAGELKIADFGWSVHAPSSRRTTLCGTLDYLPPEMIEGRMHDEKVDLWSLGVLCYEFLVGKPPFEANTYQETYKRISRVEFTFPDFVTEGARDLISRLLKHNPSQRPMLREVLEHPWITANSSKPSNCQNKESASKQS

[8] = system: Tyrosine-protein kinase ABL1 (Homo sapiens), P00519 [Q252H]; test: Selectivity interaction (KinomeScan (DiscoverX)) EUB0000666a ABL1; settings: at 10 µM

Serine-protein kinase ATM (Homo sapiens), sequence (Q13315 whole entry): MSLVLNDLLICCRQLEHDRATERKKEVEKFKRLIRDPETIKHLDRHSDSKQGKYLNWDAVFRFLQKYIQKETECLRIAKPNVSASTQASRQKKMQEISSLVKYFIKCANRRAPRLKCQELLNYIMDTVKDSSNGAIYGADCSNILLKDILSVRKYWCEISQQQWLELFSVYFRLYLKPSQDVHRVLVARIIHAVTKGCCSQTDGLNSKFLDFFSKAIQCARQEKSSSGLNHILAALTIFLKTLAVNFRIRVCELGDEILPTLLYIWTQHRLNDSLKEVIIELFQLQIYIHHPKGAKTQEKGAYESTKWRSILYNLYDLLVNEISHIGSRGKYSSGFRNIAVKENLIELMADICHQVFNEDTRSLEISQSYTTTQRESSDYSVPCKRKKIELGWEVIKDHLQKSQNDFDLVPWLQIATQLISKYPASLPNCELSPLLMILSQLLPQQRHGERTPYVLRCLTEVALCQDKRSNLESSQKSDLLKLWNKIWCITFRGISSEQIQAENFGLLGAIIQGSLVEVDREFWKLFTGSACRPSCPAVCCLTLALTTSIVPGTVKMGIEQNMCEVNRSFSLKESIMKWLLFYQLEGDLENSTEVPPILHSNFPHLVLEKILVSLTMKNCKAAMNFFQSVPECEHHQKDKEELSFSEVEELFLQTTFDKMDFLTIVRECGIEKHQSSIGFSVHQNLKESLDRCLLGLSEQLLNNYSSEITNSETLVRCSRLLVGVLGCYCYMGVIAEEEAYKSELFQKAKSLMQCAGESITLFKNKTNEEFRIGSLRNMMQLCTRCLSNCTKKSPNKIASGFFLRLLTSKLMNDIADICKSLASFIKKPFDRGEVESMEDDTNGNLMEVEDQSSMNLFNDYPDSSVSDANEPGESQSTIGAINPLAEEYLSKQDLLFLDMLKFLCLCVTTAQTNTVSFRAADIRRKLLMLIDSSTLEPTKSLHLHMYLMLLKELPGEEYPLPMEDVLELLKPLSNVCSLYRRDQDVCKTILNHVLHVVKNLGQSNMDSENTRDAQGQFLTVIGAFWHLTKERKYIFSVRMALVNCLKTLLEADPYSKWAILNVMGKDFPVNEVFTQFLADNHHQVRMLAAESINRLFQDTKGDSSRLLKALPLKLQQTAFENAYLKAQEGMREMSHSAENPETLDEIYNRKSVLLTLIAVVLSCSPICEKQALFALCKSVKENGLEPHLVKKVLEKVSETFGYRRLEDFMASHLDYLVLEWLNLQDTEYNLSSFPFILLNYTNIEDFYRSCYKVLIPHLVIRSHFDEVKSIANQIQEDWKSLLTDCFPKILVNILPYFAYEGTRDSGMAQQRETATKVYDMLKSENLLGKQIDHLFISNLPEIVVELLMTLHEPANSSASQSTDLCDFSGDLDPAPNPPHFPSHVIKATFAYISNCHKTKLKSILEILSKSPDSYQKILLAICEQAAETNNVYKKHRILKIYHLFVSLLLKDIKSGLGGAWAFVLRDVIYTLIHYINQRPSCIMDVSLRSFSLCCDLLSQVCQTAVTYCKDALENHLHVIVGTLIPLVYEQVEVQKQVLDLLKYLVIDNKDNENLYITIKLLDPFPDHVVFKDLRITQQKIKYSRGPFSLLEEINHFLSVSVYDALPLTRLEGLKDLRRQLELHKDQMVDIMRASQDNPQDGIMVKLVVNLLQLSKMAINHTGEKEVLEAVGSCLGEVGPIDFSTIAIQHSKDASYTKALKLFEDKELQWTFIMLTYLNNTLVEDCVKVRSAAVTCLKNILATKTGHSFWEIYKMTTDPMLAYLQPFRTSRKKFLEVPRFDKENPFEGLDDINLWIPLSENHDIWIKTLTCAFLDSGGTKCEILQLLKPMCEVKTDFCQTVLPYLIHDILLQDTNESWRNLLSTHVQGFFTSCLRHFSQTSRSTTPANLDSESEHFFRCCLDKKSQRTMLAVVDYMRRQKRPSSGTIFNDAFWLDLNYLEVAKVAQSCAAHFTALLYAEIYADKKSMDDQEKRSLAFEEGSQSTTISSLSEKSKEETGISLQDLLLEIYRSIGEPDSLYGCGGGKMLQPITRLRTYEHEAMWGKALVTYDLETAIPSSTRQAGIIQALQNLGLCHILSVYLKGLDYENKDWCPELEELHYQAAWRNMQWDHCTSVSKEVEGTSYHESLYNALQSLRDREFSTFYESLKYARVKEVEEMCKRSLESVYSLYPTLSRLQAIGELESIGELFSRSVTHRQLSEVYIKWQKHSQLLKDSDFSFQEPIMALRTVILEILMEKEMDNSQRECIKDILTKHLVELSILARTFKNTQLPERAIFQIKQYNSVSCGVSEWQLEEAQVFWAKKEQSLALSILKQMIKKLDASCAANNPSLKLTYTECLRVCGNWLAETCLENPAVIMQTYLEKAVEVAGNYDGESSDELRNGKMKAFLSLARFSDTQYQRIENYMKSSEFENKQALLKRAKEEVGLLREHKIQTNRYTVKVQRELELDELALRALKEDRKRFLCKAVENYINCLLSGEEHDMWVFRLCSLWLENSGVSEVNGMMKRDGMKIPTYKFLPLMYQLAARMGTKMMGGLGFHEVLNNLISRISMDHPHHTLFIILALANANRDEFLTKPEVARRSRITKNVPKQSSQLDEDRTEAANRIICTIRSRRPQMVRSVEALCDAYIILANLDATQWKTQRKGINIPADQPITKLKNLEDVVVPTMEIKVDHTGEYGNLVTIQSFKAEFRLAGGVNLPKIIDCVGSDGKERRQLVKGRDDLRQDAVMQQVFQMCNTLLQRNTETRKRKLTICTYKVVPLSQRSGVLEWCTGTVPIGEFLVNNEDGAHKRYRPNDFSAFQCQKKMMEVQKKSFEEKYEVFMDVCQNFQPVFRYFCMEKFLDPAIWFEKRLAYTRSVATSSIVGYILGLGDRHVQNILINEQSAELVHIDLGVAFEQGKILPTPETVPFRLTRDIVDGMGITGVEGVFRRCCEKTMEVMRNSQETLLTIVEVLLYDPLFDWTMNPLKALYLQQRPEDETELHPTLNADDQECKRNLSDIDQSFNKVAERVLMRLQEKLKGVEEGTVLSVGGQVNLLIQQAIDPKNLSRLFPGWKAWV
Calcium/calmodulin-dependent protein kinase type II subunit delta (Homo sapiens), sequence (Q13557 whole entry): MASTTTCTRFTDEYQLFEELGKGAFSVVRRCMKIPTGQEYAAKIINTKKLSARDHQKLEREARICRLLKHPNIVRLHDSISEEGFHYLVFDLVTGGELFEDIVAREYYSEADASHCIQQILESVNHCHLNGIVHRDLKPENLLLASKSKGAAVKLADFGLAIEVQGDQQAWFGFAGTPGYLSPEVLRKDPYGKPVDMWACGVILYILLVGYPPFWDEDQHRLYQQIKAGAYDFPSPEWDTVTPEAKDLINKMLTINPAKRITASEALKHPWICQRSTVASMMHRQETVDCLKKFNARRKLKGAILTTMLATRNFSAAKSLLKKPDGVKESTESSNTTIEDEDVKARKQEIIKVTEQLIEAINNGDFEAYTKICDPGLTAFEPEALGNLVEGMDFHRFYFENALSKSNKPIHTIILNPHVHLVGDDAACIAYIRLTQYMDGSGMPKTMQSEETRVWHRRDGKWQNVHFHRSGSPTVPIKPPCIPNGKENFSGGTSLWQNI
Serine/threonine-protein kinase 33 (Homo sapiens), sequence (Q9BYT3 whole entry, looked up): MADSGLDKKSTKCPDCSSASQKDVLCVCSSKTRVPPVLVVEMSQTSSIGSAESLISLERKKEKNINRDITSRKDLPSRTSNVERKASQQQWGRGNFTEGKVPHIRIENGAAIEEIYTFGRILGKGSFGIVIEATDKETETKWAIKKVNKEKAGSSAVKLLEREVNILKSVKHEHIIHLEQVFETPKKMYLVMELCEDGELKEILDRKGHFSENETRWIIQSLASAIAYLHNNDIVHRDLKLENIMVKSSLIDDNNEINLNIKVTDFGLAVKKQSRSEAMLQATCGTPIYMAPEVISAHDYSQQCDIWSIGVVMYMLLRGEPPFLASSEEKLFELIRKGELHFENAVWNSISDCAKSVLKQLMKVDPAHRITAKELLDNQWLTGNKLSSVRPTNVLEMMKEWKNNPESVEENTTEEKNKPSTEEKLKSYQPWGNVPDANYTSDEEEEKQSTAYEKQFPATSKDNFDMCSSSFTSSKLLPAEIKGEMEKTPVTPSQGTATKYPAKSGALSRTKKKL
Dual specificity mitogen-activated protein kinase kinase 2 (Homo sapiens), sequence (P36507 whole entry): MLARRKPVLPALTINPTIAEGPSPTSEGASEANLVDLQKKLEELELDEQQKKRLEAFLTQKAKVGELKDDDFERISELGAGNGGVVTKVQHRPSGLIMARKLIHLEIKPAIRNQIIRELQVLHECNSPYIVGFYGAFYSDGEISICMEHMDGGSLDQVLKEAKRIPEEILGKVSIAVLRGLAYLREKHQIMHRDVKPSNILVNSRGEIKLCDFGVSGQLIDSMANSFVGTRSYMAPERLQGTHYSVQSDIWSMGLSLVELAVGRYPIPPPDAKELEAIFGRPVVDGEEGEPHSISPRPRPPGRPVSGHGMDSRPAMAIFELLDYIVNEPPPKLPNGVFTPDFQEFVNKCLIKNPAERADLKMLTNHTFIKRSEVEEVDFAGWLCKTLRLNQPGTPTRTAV

% of inhibition ([1]; at 0.01 µM): 12.7%
% of inhibition ([1]; at 0.04 µM): -2.1%
% of inhibition ([1]; at 0.2 µM): -2.2%
% of inhibition ([1]; at 1 µM): -15.7%
% of inhibition ([1]; at 5 µM): 24%
% of inhibition [2]: 6.96%
SMILES: CC[C@@H]1[C@H](F)C(=O)N[C@@H]1COc1nccc2cc(C(N)=O)c(OC)cc12 [ZIMLOVISERTIB]

SMILES: Cc1cc(F)c(C(=O)Nc2cccc(-c3nncn3C(C)C)n2)cc1-n1cnc(C2CC2)c1
% of control [3]: 97%

SMILES: Nc1cnc(N2CCc3cc(S(=O)(=O)Nc4c(F)cc(Cl)cc4F)cc(N4CCCC4=O)c32)nc1 [TP-020n]
% of control [4]: 100%

SMILES: CN(C)CCOc1ccc(-c2nc(-c3ccncc3)c(-c3ccc4c(c3)CC/C4=N\O)[nH]2)cc1
% of control [5]: 81%

SMILES: O[C@H]1CC[C@H](Nc2ncc3nc(Nc4c(F)cc(F)cc4F)n([C@H]4CCOC4)c3n2)CC1
% of control [6]: 86%

SMILES: C=CC(=O)Nc1ccc(C(=O)Nc2[nH]nc3c2CN(C(=O)N[C@H](CN(C)C)c2ccccc2)C3(C)C)cc1
% of engagement ([7]; Selectivity number of off-targets 0.0, Selectivity number of targets 233.0, Source Knowledge https://www.sciencedirect.com/science/article/pii/S2451945619300674?via%3Dihub): 22.4%
% of engagement [7]: 26%

SMILES: O=C(NOC[C@H](O)CO)c1ccc(F)c(F)c1Nc1ccc(I)cc1F
% of control [8]: 100%

Reference: ChEMBL document CHEMBL5465560, “Selectivity Literature for EUbOPEN Chemogenomic Library” (2024)
